Results taken from PubChem BioAssay AID1963875 (Molecular Pharmacology Branch, DTP, NCI, 2024).

Test system: KRAS-mutant PDC complex spheroid viability
Test: Anticancer human tumor 186277-243-T-J2-PDC patient-derived colon adenocarcinoma cell line growth inhibition [KRAS2]
Details: for IC50: curve of first compound; for viability, T/C: stronger effect = lower value
Outline: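 KRAS-mutant tumor cells were grown as spheroids with HUVEC endothelial cells and human MSCs as stroma. Targeted agents were tested alone and with KRAS pathway inhibitors. Doses started at or near clinical Cmax, or 10 microM, descending half-log.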

[1] = second compound 0.1 µM, first compound 0.0316 µM
[2] = second compound 0.1 µM, first compound 0.1 µM
[3] = second compound 0.1 µM, first compound 0.316 µM
[4] = second compound 0.1 µM, first compound 1 µM
[5] = second compound 0.1 µM, first compound 3.16 µM
[6] = second compound 0.1 µM, first compound 10 µM
[7] = second compound 0.316 µM, first compound 0.0316 µM
[8] = second compound 0.316 µM, first compound 0.1 µM
[9] = second compound 0.316 µM, first compound 0.316 µM
[10] = second compound 0.316 µM, first compound 1 µM
[11] = second compound 0.316 µM, first compound 3.16 µM
[12] = second compound 0.316 µM, first compound 10 µM
[13] = second compound 1 µM, first compound 0.0316 µM
[14] = second compound 1 µM, first compound 0.1 µM
[15] = second compound 1 µM, first compound 0.316 µM
[16] = second compound 1 µM, first compound 1 µM
[17] = second compound 1 µM, first compound 3.16 µM
[18] = second compound 1 µM, first compound 10 µM
[19] = second compound 3.16 µM, first compound 0.0316 µM
[20] = second compound 3.16 µM, first compound 0.1 µM
[21] = second compound 3.16 µM, first compound 0.316 µM
[22] = second compound 3.16 µM, first compound 1 µM
[23] = second compound 3.16 µM, first compound 3.16 µM
[24] = second compound 3.16 µM, first compound 10 µM
[25] = second compound 0.0316 µM, first compound 0.0316 µM
[26] = second compound 0.0316 µM, first compound 0.1 µM
[27] = second compound 0.0316 µM, first compound 0.316 µM
[28] = second compound 0.0316 µM, first compound 1 µM
[29] = second compound 0.0316 µM, first compound 3.16 µM
[30] = second compound 0.0316 µM, first compound 10 µM
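For viability, T/C in this document: viability read after seven days of compound exposure; 100% = DMSO vehicle-treated spheroids so lower means less viable.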

SMILES	IC50 (second compound 0.1 µM) [nM]	IC50 (second compound 0.316 µM) [nM]	IC50 (second compound 1 µM) [nM]	IC50 (second compound 3.16 µM) [nM]	viability, T/C [1] [%]	viability, T/C [2] [%]	viability, T/C [3] [%]	viability, T/C [4] [%]	viability, T/C [5] [%]	viability, T/C [7] [%]	viability, T/C [8] [%]	viability, T/C [9] [%]	viability, T/C [10] [%]	viability, T/C [11] [%]	viability, T/C [13] [%]	viability, T/C [14] [%]	viability, T/C [15] [%]	viability, T/C [16] [%]	viability, T/C [17] [%]	viability, T/C [19] [%]	further results
COc1cc2nccc(Oc3ccc(NC(=O)C4(C(=O)Nc5ccc(F)cc5)CC4)cc3)c2cc1OC + CC1OCC2(CCN(c3cnc(Sc4ccnc(N)c4Cl)c(N)n3)CC2)C1N	1980	2030	1710	821	106	111	105	103	13.7	115	98.8	109	107	14.6	104	112	104	85.2	9.37	94	IC50 (second compound 10 µM): 284 nM; viability, T/C [6]: 8.67%; viability, T/C [12]: 9.03%; viability, T/C [18]: 6.62%; viability, T/C [20]: 92.8%; viability, T/C [21]: 83.7%; viability, T/C [22]: 43.6%; viability, T/C [23]: 5.99%; viability, T/C [24]: 4.64%; viability, T/C (second compound 10 µM, first compound 0.0316 µM): 63.5%; viability, T/C (second compound 10 µM, first compound 0.1 µM): 60.7%; viability, T/C (second compound 10 µM, first compound 0.316 µM): 48.5%; viability, T/C (second compound 10 µM, first compound 1 µM): 21.8%; viability, T/C (second compound 10 µM, first compound 3.16 µM): 3.73%; viability, T/C (second compound 10 µM, first compound 10 µM): 3.26%
CC1COCCN1c1cc(-c2ccnn2C)c2ccnc(-c3ccn[nH]3)c2n1 (stereo not given) + C=CC(=O)N1CCN(c2nc(OCC3CCCN3C)nc3c2CCN(c2cccc4cccc(C)c24)C3)CC1CC#N	19.8	19	18.3	< 10	24.3	7.71	5.76	5.41	5.94	21.6	7.5	5.3	5.1	5.45	12.7	7.23	5.64	4.81	4.49	1.73	IC50 (second compound 0.0316 µM): 20.3 nM; viability, T/C (second compound 0.0316 µM, first compound 0.01 µM): 88.9%; viability, T/C [25]: 25.8%; viability, T/C [26]: 7.37%; viability, T/C [27]: 5.84%; viability, T/C [28]: 5.53%; viability, T/C [29]: 6.31%; viability, T/C (second compound 0.1 µM, first compound 0.01 µM): 87.5%; viability, T/C (second compound 0.316 µM, first compound 0.01 µM): 85.9%; viability, T/C (second compound 1 µM, first compound 0.01 µM): 91.2%; viability, T/C (second compound 3.16 µM, first compound 0.01 µM): 1.43%; viability, T/C [20]: 1.13%; viability, T/C [21]: 1.47%; viability, T/C [22]: 0.61%; viability, T/C [23]: 1.05%
CC1OCC2(CCN(c3cnc(Sc4ccnc(N)c4Cl)c(N)n3)CC2)C1N (stereo not given) + C=CC(=O)N1CCN(c2nc(OCC3CCCN3C)nc3c2CCN(c2cccc4cccc(C)c24)C3)CC1CC#N	> 10000	> 10000	> 10000	< 31.6	108	112	110	103	104	113	111	102	110	102	102	99.9	101	107	118	1.51	IC50 (second compound 0.0316 µM): > 10000 nM; viability, T/C [25]: 111%; viability, T/C [26]: 101%; viability, T/C [27]: 108%; viability, T/C [28]: 101%; viability, T/C [29]: 102%; viability, T/C [30]: 116%; viability, T/C [6]: 110%; viability, T/C [12]: 116%; viability, T/C [18]: 88.5%; viability, T/C [20]: 10%; viability, T/C [21]: 0.47%; viability, T/C [22]: 0.22%; viability, T/C [23]: 0.3%; viability, T/C [24]: 1.11%
COC(=O)c1ccc2c(C(=Nc3ccc(N(C)C(=O)CN4CCN(C)CC4)cc3)c3ccccc3)c(O)[nH]c2c1 + C=CC(=O)N1CCN(c2nc(OCC3CCCN3C)nc3c2CCN(c2cccc4cccc(C)c24)C3)CC1CC#N	732	949	446	< 31.6	91.5	92.3	103	33	12.6	97.8	109	102	47.5	7.39	105	86.3	65.3	20.9	1.39	0.29	IC50 (second compound 0.0316 µM): 1890 nM; viability, T/C [25]: 103%; viability, T/C [26]: 104%; viability, T/C [27]: 113%; viability, T/C [28]: 85.3%; viability, T/C [29]: 21.7%; viability, T/C [30]: 13.4%; viability, T/C [6]: 7.16%; viability, T/C [12]: 5.61%; viability, T/C [18]: 1.01%; viability, T/C [20]: 0.26%; viability, T/C [21]: 0.23%; viability, T/C [22]: 0.11%; viability, T/C [23]: 0.77%; viability, T/C [24]: 0.09%
